From US20140336216A1, “PHYSIOLOGICAL LIGANDS FOR GPR139” (Janssen Pharmaceutica NV, priority 2013, published 2014)
Several values for one entry are separate records, joined by “and”; a condition that tells them apart may be missing. Identical values can stand only once.

Legend:
GPR139 [1] = target: T1, GPR139 (Homo sapiens, UniProt Q6DWJ6); experiment: GTPγS binding dose response study, human GPR139 co-transfected with GO2Q into COS7 cells; type: biochemical; design: expressed in transfected cells; host or cells: COS7 (membranes); conditions: human GPR139, FIG. 2A and 2B
T1 sequence (Q6DWJ6 1-353): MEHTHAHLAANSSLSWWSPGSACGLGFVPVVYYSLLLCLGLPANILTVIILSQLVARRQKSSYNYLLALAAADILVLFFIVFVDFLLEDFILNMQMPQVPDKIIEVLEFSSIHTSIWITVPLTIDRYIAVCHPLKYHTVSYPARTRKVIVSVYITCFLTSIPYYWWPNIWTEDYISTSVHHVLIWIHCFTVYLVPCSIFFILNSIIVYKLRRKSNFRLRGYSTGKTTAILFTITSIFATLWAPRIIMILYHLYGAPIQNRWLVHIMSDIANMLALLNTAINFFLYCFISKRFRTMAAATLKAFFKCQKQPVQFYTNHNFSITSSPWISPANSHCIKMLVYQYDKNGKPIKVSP
Source text: (§1) FIG. 2-FIG. 2F: Tryptophan, phenylalanine, and their derivatives activate GPR139. Human (FIG. 2A and FIG. 2B) or mouse (FIG. 2C and FIG. 2D) GPR139 were co-transfected with chimeric G-protein GO2Q into COS7 cells. Cell membranes from transfected cells were used in GTPγS binding studies using various ligands at different concentrations to stimulate GPR139. FIG. 2E and FIG. 2F show control experiments in the dose response studies of Example 1.

mouse GPR139 = target: T2, mouse GPR139 (Mus musculus, UniProt Q80UC8); experiment: GTPγS binding dose response study, mouse GPR139 co-transfected with GO2Q into COS7 cells; type: biochemical; conditions: mouse GPR139, FIG. 2C and 2D
T2 construct: expressed in transfected cells; host or cells: COS7 (membranes)
T2 sequence (Q80UC8 1-345): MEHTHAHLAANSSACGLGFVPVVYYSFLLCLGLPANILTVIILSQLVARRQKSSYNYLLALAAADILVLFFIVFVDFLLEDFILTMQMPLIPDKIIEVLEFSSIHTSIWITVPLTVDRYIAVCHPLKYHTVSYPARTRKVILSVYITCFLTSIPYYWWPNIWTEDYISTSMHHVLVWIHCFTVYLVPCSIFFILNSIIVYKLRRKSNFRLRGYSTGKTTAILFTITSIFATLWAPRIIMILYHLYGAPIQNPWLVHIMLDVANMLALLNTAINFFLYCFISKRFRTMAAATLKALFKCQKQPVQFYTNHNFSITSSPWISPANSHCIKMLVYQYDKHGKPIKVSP
Source text: as §1

GPR139 [2] = target: T1, GPR139; experiment: Calcium mobilization assay (FLIPR), GPR139 expressed in HEK293 cells; type: cell-based; design: expressed in transfected cells; host or cells: HEK293 (transient); conditions: similar to GTPγS binding studies
Experimental: FIG. 3A and FIG. 3B: Provides the results of experiments conducted to determine whether Trp and its derivatives (FIG. 3A) and Phe and its derivatives (FIG. 3B) stimulate Ca^2+ mobilization in HEK293 cells expressing GPR139.
The active compounds were also tested in a calcium mobilization assay (FLIPR® assay). For these experiments human GPR139 was transiently expressed in HEK293 cells and calcium mobilization was stimulated using L-Trp, L-Phe or their derivatives. […] The concentrations of L-Trp and L-Phe in many cell culture media (for instance DMEM is about 80 μM and 750 μM respectively) are close to the EC50 values of L-Trp and L-Phe for GPR139. […] This may explain why GPR139 appeared constitutively active when recombinantly expressed in mammalian cells.
About 300 additional phenylalanine analogues have been tested for GPR139 activation using a calcium mobilization (FLIPR®) assay. The results of these experiments indicate that many of these analogues can also activate GPR139. Table 4 lists certain phenylalanine analogues that have been determined to activate GPR139 by calcium mobilization at a concentration of 300 μM (calcium mobilization is expressed as percentage of that observed for L-phenylalanine).

GO2Q alone = experiment: GTPγS binding assay, control COS7 membranes expressing GO2Q alone (Ct-GO2Q); type: biochemical; conditions: 1 mM final concentration; COS7 membranes expressing GO2Q alone; single wells of triplicate
Experimental: (§2) In order identify the ligands for GPR139 two improvements in the detection assay were made to allow for the ligands to be detected. First, we chose to use a GTPγS binding assay instead of using live cultured cells. The GTPγS binding assay is a cell free system that uses the cell membrane of the cell(s) of interest rather than the live cell(s). One advantage of this assay is that potential ligands present in the cell culture media are washed away when the cell membrane is prepared. This reduces the basal level of signal and increase the chance of detecting receptor ligands when assessing compounds that activate the receptor. Second, a GO2Q chimeric G-protein was created to be co-expressed with GPR139 in order to increase the signal-to-noise ratio in the GTPγS binding assay. Historically, the Gi, Go coupled GPCRs offer much greater signal-to-noise ratio in GTPγS binding studies. For Gs and Gq coupled GPCRs, although ligand-stimulated specific signals can be detected in a GTPγS binding assay, the signal-to-noise ratios are often very small. To address this a chimeric GO2-Gq chimeric G-protein, GO2Q, with the N-terminus from Go2 protein and the C-terminus from Gq protein.
(§3) To test for compounds that activate GPR139, different amino acids and their derivatives (Table 2) were tested as ligands in the GTPγS binding assay using cell membranes from COS7 cells co-expressing GPR139 and GO2Q. Cell membrane from COS7 cells expressing GO2Q alone or co-expressing other GPCRs were also tested in GTPγS binding assay in parallel as controls. Each compound was tested in triplicate.

GPR139 [3] = target: T1, GPR139; experiment: GTPγS binding assay, single-concentration screen, COS7 membranes co-expressing GPR139 and GO2Q; type: biochemical; design: expressed in transfected cells; host or cells: COS7 (membranes); conditions: for Activation of GPR139 in the GTPγS binding assay: 1 mM; for Activation levels of GPR139 (GTPγS binding), GPR139-GO2Q: 1 mM final concentration, COS7 membranes co-expressing GPR139 and GO2Q, single wells of triplicate
Experimental: as §2, §3

Row | SMILES | Dose-responsive activation of GPR139 (GTPγS binding) (GPR139 [1]) | Dose-responsive activation of GPR139 (GTPγS binding) (mouse GPR139) | Potency in calcium mobilization relative to L-Trp and L-Phe (GPR139 [2]) | Activation levels (GTPγS binding), Ct-GO2Q (GO2Q alone) | Activation of GPR139 in the GTPγS binding assay (GPR139 [3]) | Activation levels of GPR139 (GTPγS binding), GPR139-GO2Q (GPR139 [3])
1 | Cn1cc(C[C@H](N)C(=O)O)c2ccccc21 [1-methy-L-Trp, 1-methyl-L-Trp] | specifically activate GPR139 in a dose-responsive manner | specifically activate GPR139 in a dose-responsive manner | higher potencies | – | – | –
2 | NCCc1c[nH]c2ccccc12 [Tryptamine] | specifically activate GPR139 in a dose-responsive manner | specifically activate GPR139 in a dose-responsive manner | – | 2025 and 2048 and 2088 | activated GPR139 | 6757 and 7686 and 7742
3 | N[C@@H](CO)C(=O)O [Ser] | – | – | – | 1975 and 2036 and 2164 | – | 2605 and 2458 and 2545
4 | CC(C)C[C@H](N)C(=O)O [Leu] | – | – | – | 2194 and 2213 and 2167 | – | 2621 and 2544 and 2437
5 | N[C@@H](CC(=O)O)C(=O)O [Asp] | – | – | – | 2177 and 2137 and 2132 | – | 2758 and 2922 and 2925
6 | NC(=O)C[C@H](N)C(=O)O [Asn] | – | – | – | 2195 and 2142 and 2133 | – | 2806 and 2483 and 2547
7 | N[C@@H](CCC(=O)O)C(=O)O [Glu] | – | – | – | 2242 and 2310 and 2311 | – | 2847 and 2837 and 2841
8 | CNCC(O)c1ccc(O)c(O)c1 (centres unmarked) [Adrenaline] | – | – | – | 2240 and 2117 and 2045 | – | 2721 and 2624 and 2670
9 | CC[C@H](C)[C@H](N)C(=O)O [Ile] | – | – | – | 2266 and 2222 and 2253 | – | 2760 and 2542 and 2903
10 | CC(N)Cc1ccccc1 (centres unmarked) [Amphetamine] | specifically activate GPR139 in a dose-responsive manner | specifically activate GPR139 in a dose-responsive manner | – | 2331 and 2132 and 2001 | activated GPR139 | 7242 and 6744 and 7263
11 | C[C@@H](O)[C@H](N)C(=O)O [Thr] | – | – | – | 2210 and 2213 and 2008 | – | 2547 and 2507 and 2558
12 | CC(C)[C@H](N)C(=O)O [Val] | – | – | – | 2072 and 2083 and 1977 | – | 2632 and 2689 and 2533
13 | NCCc1c[nH]c2ccc(O)cc12 [Seretonin] | – | – | – | 2356 and 2154 and 2332 | – | 2839 and 2852 and 2920
14 | N[C@H](Cc1ccccc1)C(=O)O [D-Phe, D-phenylalanine] | specifically activate GPR139 in a dose-responsive manner | specifically activate GPR139 in a dose-responsive manner | – | – | – | –
15 | NC(=O)CC[C@H](N)C(=O)O [Gln] | – | – | – | 2181 and 2327 and 2336 | – | 2583 and 2525 and 2766
16 | Cn1cc(C[C@@H](N)C(=O)O)c2ccccc21 [1-methy-D-Try, 1-methyl-D-Trp] | specifically activate GPR139 in a dose-responsive manner | specifically activate GPR139 in a dose-responsive manner | higher potencies | – | – | –
17 | CSCC[C@H](N)C(=O)O [Met] | – | – | – | 2173 and 2307 and 2276 | – | 2657 and 2829 and 2802
18 | N[C@@H](Cc1ccc(O)cc1)C(=O)O [Tyr] | – | – | – | 2192 and 2191 and 2186 | – | 2752 and 2715 and 2921
19 | N[C@H](Cc1c[nH]c2ccccc12)C(=O)O [D-Trp, D-tryptophan] | specifically activate GPR139 in a dose-responsive manner | specifically activate GPR139 in a dose-responsive manner | – | – | – | –
20 | NCCc1ccccc1 [b-phenylethylamine, β-phenylethylamine] | specifically activate GPR139 in a dose-responsive manner | specifically activate GPR139 in a dose-responsive manner | – | 2334 and 2065 and 2024 | activated GPR139 | 6705 and 7099 and 6634
21 | NCCc1ccc(O)cc1 [Tyramine] | – | – | – | 2132 and 2277 and 2369 | – | 2883 and 2932 and 2873
22 | O=C(O)[C@@H]1CCCN1 [Pro] | – | – | – | 2256 and 2235 and 2329 | – | 2719 and 2657 and 2786
23 | N[C@@H](Cc1c[nH]cn1)C(=O)O [His] | – | – | – | 2308 and 2259 and 2197 | – | 2640 and 2499
24 | NCCCC[C@H](N)C(=O)O [Lys] | – | – | – | 2400 and 2138 and 2041 | – | 2433 and 2617 and 2589
25 | N[C@@H](CSSC[C@H](N)C(=O)O)C(=O)O [Cystine] | – | – | – | 2242 and 2149 and 2229 | – | 2501 and 2652 and 2258
26 | N[C@@H](CS)C(=O)O [Cys] | – | – | – | 1928 and 2132 and 2114 | – | 2168 and 2458 and 2336
27 | NCC(O)c1ccc(O)cc1 (centres unmarked) [Octopamine] | – | – | – | 2087 and 2140 and 2142 | – | 2554 and 2675 and 2831
